Data: US20220249394A1 (priority 2019, published 2022)

Biological target: protease K-resistance prion protein (PrP^Sc) in ScN2a cells (Mus musculus, UniProt P04925)
Assay type: cell-based
Details: 6 mM HFIP for 24 hours, protease K 10 μg/ml 37° C. 30 minutes, Western blotting, FIG. 2 #5 to #8

Structure (SMILES): OC(C(F)(F)F)C(F)(F)F [HFIP, 1,1,1,3,3,3-hexafluoro-2-propanol]
- resistance of prion protein to protease K: resistance to protease K was reduced
